# Data as given in patent publication EP1884568A1, “METHOD FOR IDENTIFICATION OF COMPOUND HAVING ANTIDEPRESSANT EFFECT” (Daiichi Sankyo Company, Limited, priority 2005, dated 2006).
# Biological target: T1, ph01207 (Homo sapiens, UniProt O60241, DEL308-362)
# T1 construct: containing an ORF that encodes 1518 amino acid residues; expressed in transfected cells; host or cells: CHO-K1 (clone ph01207 #3F8-17)
# Assay: Inhibition of the CCK-8S response (intracellular Ca2+), ph01207 #3F8-17 cell line
# Type: cell-based
# Details: for response of ph01207 #3F8-17 cell line to the ligand (increase in intracellular Ca^2+ by CCK-8S): compound 10 µg/mL added 35 sec before 10 nM CCK-8S, buffer as control
# Protocol: Identification of a compound that inhibits a response of ph01207 gene product to a ligand was carried out with a system for measuring a change in intracellular calcium concentration using ph01207 expressing cell line.
# ph01207 expressing cell line was constructed as follows. […] Detection of the expression of introduced genes in cells was carried out by FCM analysis using anti-ph01207 antibody
# As a result, a plurality of cell lines that stably expressed ph01207 was obtained. Identification of a compound was carried out using ph01207 #3F8-17 cell line that was one of clones among them.
# As a ligand, CCK-8S (Peptide Institute) was used. 0.52 mg of CCK-8S (SEQ ID NO: 14) was dissolved in 4.5 mL of 1% NaHCO3 (Wako) to prepare a solution of 0.1 mM concentration. As a test compound, SoftFocus GPCR Target-Directed Library that is a compound library (BioFocus) was used. A 2 mg/mL DMSO solution of each compound was diluted 25-fold with PBS to adjust the concentration to 80 µg/mL for use.
# Specifically, identification of a compound was carried out as follows. ph01207 #3F8-17 cell line was seeded in 96-well plates with a black wall surface and transparent bottom) at 3 × 10^4 cells /100 µL medium/well, and cultured at 37°C in the presence of 5% CO2. DMEM/F12 (supplied by Gibco) containing 10% fetal calf serum (supplied by Moregate) was used as the medium. On the next day, 20 µL of 6 × loading buffer was added to each well to allow for a reaction at 37°C for 1 h so as to allow cells to incorporate fluorescent dye contained in the loading buffer. The 6 × loading buffer was prepared by dissolving component A of the FLIPR Calcium 3 Assay Kit (Molecular Devices Corp.) with component B followed by adding probenecid (Sigma) to have a final concentration of 15 mM. After the reaction, CCK-8S (Peptide Institute) and a compound were added to measure a change in the fluorescence intensity time-dependently for each well for 80 sec. […] A time-dependent measurement of the change in the fluorescence intensity was carried out using FLEXstation (Molecular Devices Corp.).
# T1 sequence (O60241 with tags, fused parts or gaps isoform O60241-3 DEL296-350): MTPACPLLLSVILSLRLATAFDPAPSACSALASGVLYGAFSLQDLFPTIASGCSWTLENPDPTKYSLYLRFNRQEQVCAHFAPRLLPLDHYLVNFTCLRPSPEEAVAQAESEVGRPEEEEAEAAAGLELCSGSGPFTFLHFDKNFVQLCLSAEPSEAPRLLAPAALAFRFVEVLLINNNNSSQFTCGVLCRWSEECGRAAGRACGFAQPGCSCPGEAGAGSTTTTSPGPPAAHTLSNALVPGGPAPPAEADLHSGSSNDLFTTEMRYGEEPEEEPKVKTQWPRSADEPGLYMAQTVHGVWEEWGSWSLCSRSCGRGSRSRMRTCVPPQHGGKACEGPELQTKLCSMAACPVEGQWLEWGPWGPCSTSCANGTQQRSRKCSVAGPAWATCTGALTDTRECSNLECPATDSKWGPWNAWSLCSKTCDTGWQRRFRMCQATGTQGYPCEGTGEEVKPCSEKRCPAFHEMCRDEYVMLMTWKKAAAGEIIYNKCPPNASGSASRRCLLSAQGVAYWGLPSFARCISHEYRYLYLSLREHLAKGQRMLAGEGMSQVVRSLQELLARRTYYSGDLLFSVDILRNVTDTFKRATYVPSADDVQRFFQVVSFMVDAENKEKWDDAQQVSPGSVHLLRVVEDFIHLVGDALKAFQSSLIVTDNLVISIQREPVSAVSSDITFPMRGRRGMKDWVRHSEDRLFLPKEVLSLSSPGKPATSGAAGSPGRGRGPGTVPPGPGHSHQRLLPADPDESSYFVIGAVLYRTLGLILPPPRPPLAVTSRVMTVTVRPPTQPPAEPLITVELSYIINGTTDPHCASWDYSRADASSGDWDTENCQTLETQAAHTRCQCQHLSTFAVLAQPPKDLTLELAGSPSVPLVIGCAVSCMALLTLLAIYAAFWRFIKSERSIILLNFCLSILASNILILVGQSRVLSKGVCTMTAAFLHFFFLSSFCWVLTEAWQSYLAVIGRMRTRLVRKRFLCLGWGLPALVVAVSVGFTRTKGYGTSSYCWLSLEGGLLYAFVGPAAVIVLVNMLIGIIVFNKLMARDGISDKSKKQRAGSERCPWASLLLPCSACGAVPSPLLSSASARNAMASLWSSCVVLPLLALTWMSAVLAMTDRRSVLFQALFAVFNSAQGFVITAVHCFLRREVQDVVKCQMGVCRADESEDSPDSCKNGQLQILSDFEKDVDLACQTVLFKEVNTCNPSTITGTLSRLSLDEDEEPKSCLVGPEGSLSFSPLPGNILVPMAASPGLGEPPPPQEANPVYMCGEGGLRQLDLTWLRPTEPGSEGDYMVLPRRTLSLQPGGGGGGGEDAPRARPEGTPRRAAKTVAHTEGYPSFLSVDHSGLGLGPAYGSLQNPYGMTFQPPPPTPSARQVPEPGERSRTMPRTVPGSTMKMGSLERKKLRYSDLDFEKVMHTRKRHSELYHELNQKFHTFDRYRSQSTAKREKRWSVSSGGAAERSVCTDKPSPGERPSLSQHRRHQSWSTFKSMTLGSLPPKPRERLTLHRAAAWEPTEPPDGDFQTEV
SMILES,"change in fluorescence intensity on addition of the compound alone (ph01207 #3F8-17 cell line, compound 10 µg/mL added at 15 sec, before CCK-8S)",response of ph01207 #3F8-17 cell line to the ligand (increase in intracellular Ca^2+ by CCK-8S)
O=C(Nc1cccc(C(F)(F)F)c1)N1CCC2(C1)NCCc1c2[nH]c2ccccc12 (stereo not drawn) [compound A],No change,
O=C(Nc1ccccc1)N1CCC2(CC1)NCCc1c2[nH]c2ccccc12 [compound B],,inhibited
O=C(c1cnc2ccccc2c1)N1CCC2(CC1)OCc1ccccc1O2 [compound C],,inhibited
